{
  "source": "paper PMC10447463",
  "about": "“Data-mining unveils structure–property–activity correlation of viral infectivity enhancing self-assembling peptides” (Nature Communications, 2023)",
  "experiment": "Aggregate analysis by widefield fluorescence microscopy",
  "format": "physicochemical",
  "settings": "for Number of Aggregates / Aggregate Number: ThT-stained aggregates > 10 µm2 in 1330 µm × 1330 µm, 1 mg/mL 1 d, diluted to 0.1 mg/mL with 50 µM ThT, 3D object counter ImageJ, triplicate",
  "experimental": "4 µL of 1 mg/mL peptide fibrils solution is added to a 20 µL, 50 µM ThT–solution in PBS. The mixture is incubated for 15 min at RT to allow binding of ThT dye with β–sheet rich structures. For reference PBS (4 µL) was added instead of peptide fibril solution. The samples were placed in black UV Star® 384 microliter well–plates (Greiner bio–one). Fluorescence spectra were recorded on an Infinite® M1000 PRO microplate reader (Tecan) at λem = 488 nm upon excitation at λex = 440 nm with 10 nm bandwidths and multiple reads per well (3×3). Measurements were repeated in triplicates and averaged with standard deviation. A peptide fibril was considered as ThT-active if the fluorescence intensity was at least twice as strong compared to the control (PBS containing 10% DMSO). Zeta-Potential. For the determination of the surface charge of aggregated peptides zeta-potential measurements were conducted with a Zetasizer Nano ZS, Malvern Instruments. Unless stated otherwise the peptides were dissolved from DMSO (10 mg/mL) in PBS (pH 7.4) to concentration of 1 mg/mL and incubated for 1d at RT. Just before the measurement the 60 µL of the peptides were further diluted in 600 µL KCl (aq, 1 mM) in a 1 mL disposable folded capillary cells (DTS–1060, Zetasizer Nano series, Malvern). The zeta potential of the peptides was derived from the electrophoretic mobility based on the Smoluchowski formula. All measurements were averaged over two individually performed experiments and conducted in triplicates for each sample. Aggregate analysis. […] Furthermore, fluorescence microscopy was conducted by staining 1 µL preformed fibrils (1 mg/mL) with 9 µL ThT (50 µM). Brightfield microscopy was performed simultaneously to evaluate aggregation also for non ThT-active fibrils. The measurements were performed on a Leica DMi8 microscope with 10x air objective and equipped with a Leica MC170 HD camera with a filter setting λem = 527/30 nm upon excitation at λex = 480/40 nm) and processed with the Leica LASX software. To quantify size and number of microscopic aggregation of particles > 10 µm^2 at least 3 independently measured images were analyzed via the 3D object counter analysis tool of ImageJ, v 1.53f51. Sum–frequency generation. The SFG experiments were carried out with a femtosecond Ti: Sapphire amplified laser system (Spitfire Ace, Spectra–Physics, 800 nm, 40 fs, 1 kHz) with 5 W output power. We used 2 W to pump an optical parametric amplifier (TOPAS, light conversion) with a non–collinear difference frequency generation stage to generate broadband IR pulses. Another 1 W of the laser output passed through an etalon to generate narrowband visible pulses (10 cm^-1). The incident angles of the visible and IR beams were 36° and 41° with respect to the surface normal, respectively. The visible (13 µJ) and IR (5 µJ) pulses were overlapped spatially and temporally at the sample position. Subsequently, the generated SFG pulse was guided into a spectrograph (Acton SP 300i, Princeton Instruments), and detected with an EMCCD (Newton, Andor Technology). To avoid IR absorption of water vapor, we purged N2 for the measurement. All spectra were collected in the ssp (denoting s-, s- and p-polarized SFG, visible and IR, respectively) polarization combination. The spectra were normalized to the non–resonant signal taken from z–cut quartz after subtracting a background spectrum.\nTable S8 Summary of aggregate analysis from widefield microscopy measurements (Figure S32). The Number of aggregated peptides, the median size area, average size area\nand the cumulative total size area of all particles (> 10 µm2) in an area of 1330 µm × 1330 µm was determined via automated 3D object counting (ImageJ) in triplicate\nmeasurements (Std. Dev.).\nAggregate Std. Dev. Std. Dev. Std. Dev. Std. Dev.\nSequence Abs. Inf. / Std. Dev. / Count Rate / Std. Dev. Number Aggregate Median Area Median Area Average Area Average Area Total Area/ Total Area/ […]",
  "data": [
    {"substance": "CKFKFQFNM", "values": [
      {"measurement": "Number of Aggregates / Aggregate Number", "value": 170}
    ]},
    {"substance": "QCKIKIQINMWQ", "values": [
      {"measurement": "Number of Aggregates / Aggregate Number", "value": 398}
    ]},
    {"substance": "KIKQIIN", "values": [
      {"measurement": "Number of Aggregates / Aggregate Number", "value": 12}
    ]},
    {"substance": "QCKIKQIINMWQ [reference compound]", "values": [
      {"measurement": "Avg Area in 3 *(1330 µm *1330 µm)", "setting": "Fig S8 panels A, C", "value": 71.85},
      {"measurement": "Log 10 Number of aggregates in 3 * (1330 µm *1330 µm)", "setting": "Fig S8 panels A, C", "value": 2.611},
      {"measurement": "Median Area in 3 * (1330 µm *1330 µm)", "setting": "Fig S8 panels A, C", "value": 27.89},
      {"measurement": "log Avg Area in 3 * ( (1330 µm *1330 µm))", "setting": "Fig S8 panels A, C", "value": 1.856},
      {"measurement": "log Median Area in 3 * ( (1330 µm *1330 µm))", "setting": "Fig S8 panels A, C", "value": 1.445},
      {"measurement": "log Total Area of all particles in 3 * (1330 µm *1330 µm)", "setting": "Fig S8 panels A, C", "value": 4.467},
      {"measurement": "Number of aggregates in 3 * (1330 µm *1330 µm)", "setting": "Fig S8 panels A, C, 3 fields of 1330 µm x 1330 µm", "value": 408},
      {"measurement": "Avg Area in 3 *(1330 µm *1330 µm)", "setting": "Fig S8 panels B, D, average aggregate area, 3 fields of 1330 µm x 1330 µm", "value": 71.85},
      {"measurement": "Median Area in 3 * (1330 µm *1330 µm)", "setting": "Fig S8 panels B, D, median aggregate area, 3 fields of 1330 µm x 1330 µm", "value": 27.89},
      {"measurement": "Total Area of all particles in 3 * (1330 µm *1330 µm)", "setting": "Fig S8 panels B, D, total area of all particles, 3 fields of 1330 µm x 1330 µm", "value": 29314.25467},
      {"measurement": "Number of aggregates in 3 * (1330 µm *1330 µm)", "setting": "Fig S8 panels B, D, widefield fluorescence microscopy, 3 fields of 1330 µm x 1330 µm", "value": 408},
      {"measurement": "Number of Aggregates / Aggregate Number", "value": 408}
    ]},
    {"substance": "CKFKFQF", "values": [
      {"measurement": "Number of Aggregates / Aggregate Number", "value": 128},
      {"measurement": "Log10 Number Aggregates", "setting": "logarithm of averaged number of aggregates in 1330 µm × 1330 µm", "value": 2.108}
    ]},
    {"substance": "CKWKWQW", "values": [
      {"measurement": "Number of Aggregates / Aggregate Number", "value": 87}
    ]},
    {"substance": "HIHIQIC", "values": [
      {"measurement": "Number of Aggregates / Aggregate Number", "value": 33}
    ]},
    {"substance": "KWKWQW", "values": [
      {"measurement": "Number of Aggregates / Aggregate Number", "value": 28}
    ]},
    {"substance": "CHLHLQL", "values": [
      {"measurement": "Number of Aggregates / Aggregate Number", "value": 36}
    ]},
    {"substance": "KIKQIINMWQ", "values": [
      {"measurement": "Number of Aggregates / Aggregate Number", "value": 39}
    ]},
    {"substance": "KFKFQFNMWQ", "values": [
      {"measurement": "Number of Aggregates / Aggregate Number", "value": 64}
    ]}
  ]
}
